{
  "source": "patent US8080575B2",
  "about": "“Gamma-lactam compounds for promoting bone growth” (Osteogenex Inc., priority 2008, dated 2011)",
  "key": {"C57BL/6 mice [1]": {"test_system": "C57BL/6 mice", "experiment": "Trabecular bone volume by micro-CT analysis on the proximal tibia in mice treated daily i.p. for 30 days", "assay_type": "in vivo", "settings": "four month old male C57BL/6 mice", "protocol": "(§1) Four month old male C57BL/6 mice were treated daily with saline vehicle or the sclerostin inhibitor of Formula Ib:\n(§2) [drawing 9] at low, mid, or high doses (via i.p) for 30 days. Study endpoints included a biochemical marker of bone formation, osteocalcin measured by EIA Elisa, and measurement of trabecular bone volume by mico-CT analysis on the proximal tibia."}, "C57BL/6 mice [2]": {"test_system": "C57BL/6 mice", "experiment": "Serum osteocalcin (biochemical marker of bone formation) measured by EIA Elisa in mice treated daily i.p. for 30 days", "assay_type": "in vivo", "settings": "four month old male C57BL/6 mice, fraction", "protocol": "as §1, §2"}},
  "data": [
    {"smiles": "O=C1CCCN1c1ccccc1O", "note": "[Formula Ib]", "values": [
      {"measurement": "percent change in tibia long bone volume increase versus saline controls", "setting": "C57BL/6 mice [1]; 0.5 mg/kg (C)", "value": 13, "unit": "%"},
      {"measurement": "percent change in tibia long bone volume increase versus saline controls", "setting": "C57BL/6 mice [1]; 2 mg/kg (B)", "value": 40, "unit": "%"},
      {"measurement": "percent change in tibia long bone volume increase versus saline controls", "setting": "C57BL/6 mice [1]; 10 mg/kg (A)", "value": 69, "unit": "%"},
      {"measurement": "increase in serum osteocalcin over baseline", "setting": "C57BL/6 mice [2]; 0.5 mg/kg (C), also printed as 4%", "value": 0.04},
      {"measurement": "increase in serum osteocalcin over baseline", "setting": "C57BL/6 mice [2]; 2 mg/kg (B), also printed as 24%", "value": 0.24},
      {"measurement": "increase in serum osteocalcin over baseline", "setting": "C57BL/6 mice [2]; 10 mg/kg (A), also printed as 27%", "value": 0.27}
    ]}
  ]
}
